Results as given in US8192962B2, “Processes for detecting toxic substances” (Daikin Industries, Ltd., priority 2001, dated 2012).

System: Genes belonging to other category
Assay: DNA chip mRNA expression in yeast, genes belonging to other category (Table 9)
Assay type: cell-based, Saccharomyces cerevisiae S288C
Experimental: Yeast (Saccharomyces cerevisiae S288C (α SUC2mal mel gap2 CUP1)) were incubated at 25° C. on YPD medium (yeast extract 1%, polypepton 2%, glucose 2%). One of toxic chemical substances was added to the cells at logarithmic growth phase, and the cells were further incubated for two hours. Cells were cultured without any chemical substance in the same condition, and were used as control. Concentrations of the chemical substances were defined to inhibit the growth of the yeast but not lead to death.
After completion of the incubation, the culture was centrifuged to collect the cells. To the cells, sodium acetate buffer (50 mM sodium acetate, 10 mM EDTA, 1% SDS) was added, and the mixture was shaken at 65° C. for five minutes, followed by returning to room temperature, and obtaining the supernatant, of which the procedures were repeated two times. To the supernatant, ½ amount of a solution of phenol/chloroform was added, and the mixture was centrifuged to give a supernatant, which was added with an equal amount of chloroform, and the mixture was centrifuged to give a supernatant. To the supernatant, an equal amount of isopropanol containing 0.3 M sodium acetate was added, and the mixture was allowed to stand at room temperature for 30 minutes, after which the mixture was centrifuged to give a sediment of the whole RNAs. Seventy % ethanol was added to the sediment, and the mixture was again centrifuged to give a sediment, which was then dried and dissolved in water. mRNA was isolated from the whole RNAs as followings. In view of the fact that a poly A chain is attached to the 3′ terminus of mRNA, a polynucleotide having a poly T structure which was immobilized on the surface of latex beads was used to trap the mRNA, and then the mRNA was washed and eluted with spine column (Oligotex-dT30<Super>mRNA Purification Kit, Takara). Reverse transcription of the mRNA was conducted with a reverse transcriptase (Super Script II Reverse Transcriptase; catalogue No. 18064-014, GibcoBRL) using fluorescence-labeled nucleotides to give cDNAs that were introduced with Cy3-dUTP or Cy5-dUTP during the reverse transcription.
The labeled cDNAs were dissolved in TE buffer (10mM Tris-HCl/1 mM EDTA, pH8.0), and the solution was dropped on the DNA chip containing the whole genes of yeast (DNA Chip Research Inc. Japan) so that the cDNAs were hybridized on the DNA chip at 65° C. for over 12 hours. The fluoresces intensity of the DNA chip was read with a scanner, and the ratio relative to the fluorescence intensity resulting from the absence of chemical substance was estimated as the following, which is shown in Tables 1 to 9: […]

**Q.** How did the “The level of expressed mRNA in the presence of chemical substance/The level of expressed mRNA in the absence of chemical substance” value (yeast gene YKL013C) turn out when `Cl[C@H]1[C@H](Cl)[C@@H](Cl)[C@@H](Cl)[C@H](Cl)[C@H]1Cl` [(7), γ-hexachlorocyclohexane] was run?
**A.** 1.8

**Q.** What about the “The level of expressed mRNA in the presence of chemical substance/The level of expressed mRNA in the absence of chemical substance” value (yeast gene YKL039W) of the same compound?
**A.** 2.0

**Q.** And the “The level of expressed mRNA in the presence of chemical substance/The level of expressed mRNA in the absence of chemical substance” value (yeast gene YKL041W)?
**A.** 1.0

**Q.** And the “The level of expressed mRNA in the presence of chemical substance/The level of expressed mRNA in the absence of chemical substance” value (yeast gene YKL096W)?
**A.** 0.2

**Q.** And the “The level of expressed mRNA in the presence of chemical substance/The level of expressed mRNA in the absence of chemical substance” value (yeast gene YKL139W)?
**A.** 2.6

**Q.** And the “The level of expressed mRNA in the presence of chemical substance/The level of expressed mRNA in the absence of chemical substance” value (yeast gene YKL165C)?
**A.** 2.1

**Q.** What about the “The level of expressed mRNA in the presence of chemical substance/The level of expressed mRNA in the absence of chemical substance” value (yeast gene YKL193C) of the same compound?
**A.** 2.1

**Q.** And the “The level of expressed mRNA in the presence of chemical substance/The level of expressed mRNA in the absence of chemical substance” value (yeast gene YLR120C)?
**A.** 1.5

**Q.** What about the “The level of expressed mRNA in the presence of chemical substance/The level of expressed mRNA in the absence of chemical substance” value (yeast gene YLR136C) of the same compound?
**A.** 3.9

**Q.** And the “The level of expressed mRNA in the presence of chemical substance/The level of expressed mRNA in the absence of chemical substance” value (yeast gene YLR178C)?
**A.** 3.3

**Q.** And the “The level of expressed mRNA in the presence of chemical substance/The level of expressed mRNA in the absence of chemical substance” value (yeast gene YLR250W)?
**A.** 1.9

**Q.** What about the “The level of expressed mRNA in the presence of chemical substance/The level of expressed mRNA in the absence of chemical substance” value (yeast gene YLR327C) of the same compound?
**A.** 5.7

**Q.** And the “The level of expressed mRNA in the presence of chemical substance/The level of expressed mRNA in the absence of chemical substance” value (yeast gene YLR356W)?
**A.** 1.1

**Q.** And the “The level of expressed mRNA in the presence of chemical substance/The level of expressed mRNA in the absence of chemical substance” value (yeast gene YLR362W)?
**A.** 1.9

**Q.** What about the “The level of expressed mRNA in the presence of chemical substance/The level of expressed mRNA in the absence of chemical substance” value (yeast gene YLR391W) of the same compound?
**A.** 0.7

**Q.** And the “The level of expressed mRNA in the presence of chemical substance/The level of expressed mRNA in the absence of chemical substance” value (yeast gene YLR429W)?
**A.** 1.3

**Q.** And the “The level of expressed mRNA in the presence of chemical substance/The level of expressed mRNA in the absence of chemical substance” value (yeast gene YMR004W)?
**A.** 1.2

**Q.** And the “The level of expressed mRNA in the presence of chemical substance/The level of expressed mRNA in the absence of chemical substance” value (yeast gene YMR094W)?
**A.** 0.8

**Q.** What about the “The level of expressed mRNA in the presence of chemical substance/The level of expressed mRNA in the absence of chemical substance” value (yeast gene YMR104C) of the same compound?
**A.** 1.5

**Q.** And the “The level of expressed mRNA in the presence of chemical substance/The level of expressed mRNA in the absence of chemical substance” value (yeast gene YMR226C)?
**A.** 1.8

**Q.** What about the “The level of expressed mRNA in the presence of chemical substance/The level of expressed mRNA in the absence of chemical substance” value (yeast gene YMR275C) of the same compound?
**A.** 0.8

**Q.** What about the “The level of expressed mRNA in the presence of chemical substance/The level of expressed mRNA in the absence of chemical substance” value (yeast gene YMR276W) of the same compound?
**A.** 1.1

**Q.** What about the “The level of expressed mRNA in the presence of chemical substance/The level of expressed mRNA in the absence of chemical substance” value (yeast gene YMR314W) of the same compound?
**A.** 1.1

**Q.** And the “The level of expressed mRNA in the presence of chemical substance/The level of expressed mRNA in the absence of chemical substance” value (yeast gene YNL006W)?
**A.** 1.6

**Q.** What about the “The level of expressed mRNA in the presence of chemical substance/The level of expressed mRNA in the absence of chemical substance” value (yeast gene YNL007C) of the same compound?
**A.** 1.2

**Q.** And the “The level of expressed mRNA in the presence of chemical substance/The level of expressed mRNA in the absence of chemical substance” value (yeast gene YNL093W)?
**A.** 1.4

**Q.** What about the “The level of expressed mRNA in the presence of chemical substance/The level of expressed mRNA in the absence of chemical substance” value (yeast gene YNL333W) of the same compound?
**A.** 2.9

**Q.** And the “The level of expressed mRNA in the presence of chemical substance/The level of expressed mRNA in the absence of chemical substance” value (yeast gene YNR010W)?
**A.** 1.5

**Q.** And the “The level of expressed mRNA in the presence of chemical substance/The level of expressed mRNA in the absence of chemical substance” value (yeast gene YNR069C)?
**A.** 1.4

**Q.** What about the “The level of expressed mRNA in the presence of chemical substance/The level of expressed mRNA in the absence of chemical substance” value (yeast gene YOL013C) of the same compound?
**A.** 1.7

**Q.** And the “The level of expressed mRNA in the presence of chemical substance/The level of expressed mRNA in the absence of chemical substance” value (yeast gene YOL164W)?
**A.** 2.2

**Q.** What about the “The level of expressed mRNA in the presence of chemical substance/The level of expressed mRNA in the absence of chemical substance” value (yeast gene YOR036W) of the same compound?
**A.** 1.8

**Q.** What about the “The level of expressed mRNA in the presence of chemical substance/The level of expressed mRNA in the absence of chemical substance” value (yeast gene YOR117W) of the same compound?
**A.** 3.3

**Q.** What about the “The level of expressed mRNA in the presence of chemical substance/The level of expressed mRNA in the absence of chemical substance” value (yeast gene YOR124C) of the same compound?
**A.** 1.1

**Q.** What about the “The level of expressed mRNA in the presence of chemical substance/The level of expressed mRNA in the absence of chemical substance” value (yeast gene YOR132W) of the same compound?
**A.** 1.4

**Q.** And the “The level of expressed mRNA in the presence of chemical substance/The level of expressed mRNA in the absence of chemical substance” value (yeast gene YOR157C)?
**A.** 1.2

**Q.** And the “The level of expressed mRNA in the presence of chemical substance/The level of expressed mRNA in the absence of chemical substance” value (yeast gene YOR181W)?
**A.** 0.7

**Q.** What about the “The level of expressed mRNA in the presence of chemical substance/The level of expressed mRNA in the absence of chemical substance” value (yeast gene YOR185C) of the same compound?
**A.** 1.3

**Q.** And the “The level of expressed mRNA in the presence of chemical substance/The level of expressed mRNA in the absence of chemical substance” value (yeast gene YOR198C)?
**A.** 1.6

**Q.** And the “The level of expressed mRNA in the presence of chemical substance/The level of expressed mRNA in the absence of chemical substance” value (yeast gene YOR259C)?
**A.** 1.3

**Q.** And the “The level of expressed mRNA in the presence of chemical substance/The level of expressed mRNA in the absence of chemical substance” value (yeast gene YOR261C)?
**A.** 1.9

**Q.** And the “The level of expressed mRNA in the presence of chemical substance/The level of expressed mRNA in the absence of chemical substance” value (yeast gene YOR288C)?
**A.** 2.0

**Q.** What about the “The level of expressed mRNA in the presence of chemical substance/The level of expressed mRNA in the absence of chemical substance” value (yeast gene YOR355W) of the same compound?
**A.** 1.1

**Q.** And the “The level of expressed mRNA in the presence of chemical substance/The level of expressed mRNA in the absence of chemical substance” value (yeast gene YOR383C)?
**A.** 8.0

**Q.** And the “The level of expressed mRNA in the presence of chemical substance/The level of expressed mRNA in the absence of chemical substance” value (yeast gene YPL089C)?
**A.** 0.9

**Q.** And the “The level of expressed mRNA in the presence of chemical substance/The level of expressed mRNA in the absence of chemical substance” value (yeast gene YPL109C)?
**A.** 1.8

**Q.** And the “The level of expressed mRNA in the presence of chemical substance/The level of expressed mRNA in the absence of chemical substance” value (yeast gene YPL149W)?
**A.** 1.2

**Q.** What about the “The level of expressed mRNA in the presence of chemical substance/The level of expressed mRNA in the absence of chemical substance” value (yeast gene YPL154C) of the same compound?
**A.** 1.5

**Q.** And the “The level of expressed mRNA in the presence of chemical substance/The level of expressed mRNA in the absence of chemical substance” value (yeast gene YPR103W)?
**A.** 1.6

**Q.** What about the “The level of expressed mRNA in the presence of chemical substance/The level of expressed mRNA in the absence of chemical substance” value (yeast gene YPR108W) of the same compound?
**A.** 1.6
